Assay results taken from PubChem BioAssay (NCI).
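Where inhibition never reached the appropriate level, the endpoint shown equals the highest concentration tested. Otherwise, values were interpolated linearly from a five-concentration, 48-hour dose response in 96-well plates. Abbreviation: GI50, concentration required for 50% inhibition of growth. TGI: total growth inhibition.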

Columns and labels:
Assay in all cases: NCI-60 cell line screen, 48 h
[1] = test system: ACHN renal
[2] = test system: NCI-H460 lung
[3] = test system: BT-549 breast
[4] = test system: HCC-2998 colon
[5] = test system: PC-3 prostate
[6] = test system: COLO 205 colon
[7] = test system: SK-MEL-5 melanoma
[8] = test system: SK-OV-3 ovarian
[9] = test system: A549 NSCLC
[10] = test system: OVCAR-4 ovarian
[11] = test system: U251 CNS
[12] = test system: HL-60(TB) leukemia
[13] = test system: NCI-H23 lung
[14] = test system: RPMI-8226 leukemia
[15] = test system: OVCAR-3 ovarian
[16] = test system: HT29 colon
[17] = test system: SK-MEL-28 melanoma
[18] = test system: CAKI-1 renal
[19] = test system: MDA-MB-231 breast
[20] = test system: HOP-92 NSCLC
[21] = test system: EKVX NSCLC
[22] = test system: T-47D breast
[23] = test system: 786-0 renal
[24] = test system: OVCAR-8 ovarian
[25] = test system: SF-539 CNS
[26] = test system: NCI/ADR-RES ovarian
[27] = test system: IGROV1 ovarian
[28] = test system: RXF 393 renal
[29] = test system: UACC-257 melanoma
[30] = test system: SW-620 colon
[31] = test system: MALME-3M melanoma
[32] = test system: SN12C renal
[33] = test system: HCT-116 colon
[34] = test system: A498 renal
[35] = test system: NCI-H226 lung
[36] = test system: NCI-H522 lung
[37] = test system: MDA-MB-435
[38] = test system: SK-MEL-2 melanoma
[39] = test system: SNB-75 CNS
[40] = test system: UACC-62 melanoma
[41] = test system: M14 melanoma
[42] = test system: SF-295 CNS
[43] = test system: SNB-19 CNS
[44] = test system: KM12 colon
[45] = test system: MCF7 breast
[46] = test system: HCT-15 colon
[47] = test system: HS 578T breast
[48] = test system: LOX IMVI melanoma
[49] = test system: K-562 leukemia
[50] = test system: CCRF-CEM leukemia
[51] = test system: SF-268 CNS
[52] = test system: HOP-62 NSCLC
[53] = test system: OVCAR-5 ovarian
[54] = test system: DU-145 prostate
[55] = test system: MOLT-4 leukemia
[56] = test system: UO-31 renal
[57] = test system: TK-10 renal

## COc1cc2c3c(n(CCCNCCNCCN)c(=O)c2cc1OC)-c1cc2c(cc1C3=O)OCO2
[1]
  GI50: 3.3 µM
  TGI: > 53.2 µM
[2]
  GI50: 2.08 µM
  TGI: > 42.6 µM
[3]
  GI50: 3.09 µM
  TGI: 15 µM
[4]
  GI50: 3.2 µM
  TGI: 23.8 µM
[5]
  GI50: 5.62 µM
  TGI: > 55.5 µM
[6]
  GI50: 2.58 µM
  TGI: > 100 µM
[7]
  GI50: 1.99 µM
  TGI: 9.5 µM
[8]
  GI50: 12.1 µM
  TGI: > 100 µM
[9]
  GI50: 3.55 µM
  TGI: 62.2 µM
[10]
  GI50: 5.09 µM
  TGI: > 31 µM
[11]
  GI50: 1.85 µM
  TGI: > 100 µM
[12]
  GI50: 1.14 µM
  TGI: 15.6 µM
[13]
  GI50: 1.92 µM
  TGI: 8.95 µM
[14]
  GI50: 1.22 µM
  TGI: 3.44 µM
[15]
  GI50: 1.48 µM
  TGI: 6.01 µM
[16]
  GI50: 1.72 µM
[17]
  GI50: 4.65 µM
  TGI: > 39.1 µM
[18]
  GI50: 3.38 µM
  TGI: 22.9 µM
[19]
  GI50: 0.904 µM
  TGI: 6.97 µM
[20]
  GI50: 4.85 µM
  TGI: 37.7 µM
[21]
  GI50: 1.68 µM
  TGI: 8.1 µM
[22]
  GI50: 2.99 µM
  TGI: > 100 µM
[23]
  GI50: 1.91 µM
  TGI: 14.7 µM
[24]
  GI50: 1.46 µM
  TGI: 11.2 µM
[25]
  GI50: 0.551 µM
  TGI: 3.21 µM
[26]
  GI50: > 100 µM
  TGI: > 100 µM
[27]
  GI50: 5.21 µM
  TGI: > 100 µM
[28]
  GI50: 5.78 µM
  TGI: > 29.3 µM
[29]
  GI50: 15.2 µM
  TGI: 35.9 µM
[30]
  GI50: 2.13 µM
  TGI: 43.8 µM
[31]
  GI50: 0.699 µM
  TGI: 5.75 µM
[32]
  GI50: 2.5 µM
  TGI: 64.7 µM
[33]
  GI50: 0.831 µM
  TGI: 2.19 µM
[34]
  GI50: 19.1 µM
  TGI: 39.6 µM
[35]
  GI50: 4.08 µM
  TGI: 21.4 µM
[36]
  GI50: 2.85 µM
  TGI: > 24.3 µM
[37]
  GI50: 2.67 µM
  TGI: 10.6 µM
[38]
  GI50: 6.94 µM
  TGI: 17.4 µM
[39]
  GI50: 0.277 µM
  TGI: 9.47 µM
[40]
  GI50: 2.34 µM
  TGI: 12.8 µM
[41]
  GI50: 3.35 µM
  TGI: 14.7 µM
[42]
  GI50: 0.522 µM
  TGI: 11.4 µM
[43]
  GI50: 2.12 µM
  TGI: > 100 µM
[44]
  GI50: 3.41 µM
  TGI: 17.8 µM
[45]
  GI50: 0.434 µM
[46]
  GI50: 11.9 µM
  TGI: > 100 µM
[47]
  GI50: 3.07 µM
  TGI: 15.7 µM
[48]
  GI50: 2.67 µM
  TGI: 18.3 µM
[49]
  GI50: 1.18 µM
  TGI: 15.9 µM
[50]
  GI50: 0.0835 µM
  TGI: 1.58 µM
[51]
  GI50: 1.72 µM
  TGI: 21.7 µM
[52]
  GI50: 2.8 µM
  TGI: 20.5 µM
[53]
  GI50: 3.61 µM
  TGI: > 25.2 µM
[54]
  GI50: 1.14 µM
  TGI: 5.82 µM
[55]
  GI50: 0.186 µM
  TGI: 1.8 µM
[56]
  GI50: 47.8 µM
  TGI: > 100 µM
[57]
  GI50: 3.23 µM
  TGI: 22.4 µM
